The values that follow come from US10308636B2, “Aromatic heterocyclic compound” (MITSUBISHI TANABE PHARMA CORPORATION, priority 2012, dated 2019).

One test deals with Male ICR mice. The experiment in a line: Triglyceride (TG) elevation-suppressing action in plasma by lipid administration. It is filed as in vivo, mouse. Conditions: 5 mg/kg oral, fasted ICR mice, lipid (Intralipos 20%, 10 mL/kg) 30 minutes after compound, plasma TG 2 hours after lipid, relative to solvent control.
For the next test, the system named is Male C57BL/6J mice. The experiment in a line: Food intake-suppressing action (high fat diet). It is filed as in vivo, mouse. The settings on record: 5 mg/kg oral, fasted C57BL/6J mice, food intake for 4 hours, relative to solvent control.
For another test, the system named is Male KK-Ay mice. The experiment in a line: Body weight gain-suppressing, hypoglycemic and plasma insulin-decreasing action in KK-Ay mouse. The settings on record: 30 mg/kg/day oral once a day for 2 weeks, KK-Ay mice on high fat diet; for Hypoglycemic action (30 mg/kg/day): blood sugar after overnight fast; for Hypoglycemic action (30 mg/kg/day) / Plasma insulin-decreasing action (30 mg/kg/day): relative to solvent control; for Plasma insulin-decreasing action (30 mg/kg/day): plasma insulin after overnight fast; for Body weight gain-suppressing action (30 mg/kg/day): relative to body weight gain of solvent control as 100%. It is filed as in vivo. On the procedure:
Male KK-Ay mice, 8 weeks old, were given high fat diet (Oriental Yeast, 60 cal % fat), the test compound was suspended in 0.2% carboxymethylcellulose solution and the suspension was orally administered once a day. After the oral administration was repeated for 2 weeks, the body weight gain-suppressing ratio of the test compound was calculated, relative to the body weight gain of the solvent control group during the test period as 100%. After the final administration, the animals were fasted overnight, and blood was sampled through the caudal vein. The blood sugar and the insulin in the plasma were determined by using Glucose C II-Test Wako (Wako Pure Chemical) and Mouse Insulin Measurement Kit (Morinaga Institute of Biological Science), respectively.

Experimental for Male C57BL/6J mice: Male C57BL/6J mice, 7 to 10 weeks old, were fasted overnight, and a test compound was suspended in 0.2% carboxymethylcellulose solution and the suspension was orally administered. Immediately, the animals were given high fat diet (Oriental Yeast, 60 cal % fat) and allowed to take freely. The food intake for 4 hours was determined, and the decrease ratio of the food intake (food intake-suppressing ratio) was calculated in the test compound administrating group, relative to the food intake in the solvent control group as a control.
Experimental for Male ICR mice: Male ICR mice, 6 to 9 weeks old, were fasted overnight, and a test compound was suspended in 0.2% carboxymethylcellulose solution and the suspension was orally administered. After 30 minutes, lipid (Intralipos, 20%, Otsuka Pharmaceutical, 10 mL/kg) was orally administered. Blood was sampled through the caudal vein immediately before and 2 hours after the administration of the lipid to obtain plasma. TG in the plasma was determined by using Triglyceride E-Test Wako (Wako Pure Chemical), and the elevation value of TG in the plasma by the lipid administration was calculated. By using the plasma TG elevation value in the solvent control group as the control, the plasma TG elevation-suppressing ratio was calculated in the test compound administrating group.

Turning to `CC(C)(COc1ccc(-c2ccc(-c3ncc(CCOc4ccccc4)[nH]3)cn2)cc1)C(=O)O` [Example 1-58], the “Plasma TG elevation suppressing ratio (5 mg/kg)” value in the test with Male ICR mice is on record as 66%. In addition, the “Food intake-suppressing ratio (5 mg/kg)” value with Male C57BL/6J mice is 68%.
With `COC(=O)C(C)(C)COc1ccc(-c2ccc(-c3nc(-c4noc(C)n4)cn3COCC[Si](C)(C)C)cn2)cc1` [Example 7], in the test on Male KK-Ay mice, the “Hypoglycemic action (30 mg/kg/day)” value stood at 42%, the “Plasma insulin-decreasing action (30 mg/kg/day)” value (shortened to “Plasma insulin-decreasing action”) worked out at 34% and the “Body weight gain-suppressing action (30 mg/kg/day)” value (“Body weight gain-suppressing action” below) was determined as 34%.
In the case of `CC(C)(COc1ccc(-c2ccc(-c3nc(COCc4ccccc4)c[nH]3)cn2)cc1)C(=O)O` [Example 10], in the test on Male KK-Ay mice, the “Hypoglycemic action (30 mg/kg/day)” value came to 37%, the “Plasma insulin-decreasing action” value was 40% and the “Body weight gain-suppressing action” value came out at 32%.
As to `CCOCc1nc(-c2ccc(-c3ccc(OCC(C)(C)C(=O)O)cc3)nc2)[nH]c1Cl` [Example 31-2], in the test with Male KK-Ay mice, the “Hypoglycemic action (30 mg/kg/day)” value worked out at 55%, the “Plasma insulin-decreasing action” value is given as 45% and the “Body weight gain-suppressing action” value was determined as 41%. For the same compound, the “Plasma TG elevation suppressing ratio (5 mg/kg)” value in the test with Male ICR mice is 74%. Besides, the “Food intake-suppressing ratio (5 mg/kg)” value with Male C57BL/6J mice is 74%.
With `Cc1cc(OCC(C)(C)C(=O)O)ncc1-c1ccc(-c2nc(C#N)c[nH]2)cc1` [Example 32-2], the “Plasma TG elevation suppressing ratio (5 mg/kg)” value in the test on Male ICR mice is 63%. Besides, in the test on Male C57BL/6J mice, the “Food intake-suppressing ratio (5 mg/kg)” value is listed as 65%.
Taken in the same sequence, the figures for `O=C(O)Cc1ccc(C2CCN(c3ccc(-c4nc(C(F)(F)F)c[nH]4)cn3)CC2)cc1` [Example 43-2] were 66% and 82%.
For `Nc1nnc(-c2ccc(Br)cc2)o1` [Example 61], in the test with Male KK-Ay mice, the “Hypoglycemic action (30 mg/kg/day)” value is 44%, the “Plasma insulin-decreasing action” value was 50% and the “Body weight gain-suppressing action” value was determined as 36%.
The matching figures for `CCOc1nc(-c2ccc(-c3ccc(O[C@H]4CC[C@@H](C(=O)OCC)CC4)nc3)cc2)nn1COCC[Si](C)(C)C` [Example 67]: 47%, 14% and 43%.
Taken in the same sequence, the figures for `COC(=O)C(C)(C)COc1ccc(-c2ccc(-c3nc(OCC(F)(F)C(F)(F)F)n(COCC[Si](C)(C)C)n3)cc2)cn1` [Example 74] were 32%, 29% and 41%.
Taken in the same sequence, the figures for `NC(=O)c1ccc(Br)cc1F` [Example 78] were 57%, 69% and 56%.
As to `COc1ccc(-c2n[nH]c(-c3ccc(-c4ccc(OCC(C)(C)C(=O)O)nc4)cc3)n2)cc1` [Example 110], the “Plasma TG elevation suppressing ratio (5 mg/kg)” value in the test with Male ICR mice worked out at 73.0%. Moreover, in the test with Male C57BL/6J mice, the “Food intake-suppressing ratio (5 mg/kg)” value was 68%.
